Data from PubChem BioAssay (NCI).
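Each compound was tested at five concentrations against cells in 96-well plates for 48 hours. GI50 = concentration required for 50% inhibition of growth. TGI: total growth inhibition.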

Tests used:
Test in all cases: NCI tumour cell line growth inhibition, 48 h
786-0 renal = system: 786-0 renal
HCC-2998 colon = system: HCC-2998 colon
KM12 colon = system: KM12 colon
M14 melanoma = system: M14 melanoma
MALME-3M melanoma = system: MALME-3M melanoma
NCI-H226 lung = system: NCI-H226 lung
NCI-H522 lung = system: NCI-H522 lung
OVCAR-3 ovarian = system: OVCAR-3 ovarian
OVCAR-5 ovarian = system: OVCAR-5 ovarian
OVCAR-8 ovarian = system: OVCAR-8 ovarian
SK-MEL-28 melanoma = system: SK-MEL-28 melanoma
SNB-19 CNS = system: SNB-19 CNS
SW-620 colon = system: SW-620 colon
UACC-257 melanoma = system: UACC-257 melanoma
UACC-62 melanoma = system: UACC-62 melanoma

Row | Structure (SMILES) | TGI (786-0 renal) | TGI (HCC-2998 colon) | TGI (KM12 colon) | TGI (M14 melanoma) | GI50 (MALME-3M melanoma) | TGI (MALME-3M melanoma) | TGI (NCI-H226 lung) | TGI (NCI-H522 lung) | TGI (OVCAR-3 ovarian) | TGI (OVCAR-5 ovarian) | TGI (OVCAR-8 ovarian) | TGI (SK-MEL-28 melanoma) | TGI (SNB-19 CNS) | TGI (SW-620 colon) | TGI (UACC-257 melanoma) | TGI (UACC-62 melanoma)
1 | Cc1ccc2[nH]c3c(C)c4c(c(C)c3c2c1)CN(C)C=C4 | 10.5 µM | 3.52 µM | 2.4 µM | 13.6 µM | 1.72 µM | 4.58 µM | 2.13 µM | 1.38 µM | 14.8 µM | 9.41 µM | 9.01 µM | 4.03 µM | 1.99 µM | 3 µM | 8 µM | 3.15 µM
2 | O=c1c(-c2ccccc2)c2oc(c1-c1ccccc1)CS(=O)(=O)CCC2 | 44.1 µM |  | > 100 µM |  |  | > 100 µM | 80.9 µM | 22.7 µM | 73 µM |  | > 100 µM | 38.3 µM | > 100 µM | > 100 µM | > 100 µM | 54.3 µM
3 | COc1c(C)c2c(c3c1c(=O)c1ccccc1n3C)C=CC(C)(C)O2 | 69.8 µM | 95.6 µM | 60.9 µM | 37.9 µM |  | 56.7 µM | > 100 µM | 67.3 µM | 41 µM | 87.6 µM | 91.5 µM | 55.1 µM | > 100 µM | > 100 µM | 76.6 µM | 33.4 µM
4 | CC1CN(c2ccc(Cl)cc2)CC(C)(C)OC(=O)O1 (configuration not stated) | > 100 µM | > 100 µM | > 100 µM | > 100 µM |  | > 100 µM | > 100 µM | > 100 µM | > 100 µM | > 100 µM | > 100 µM | > 100 µM | > 100 µM | > 100 µM | > 100 µM | > 100 µM
5 | COc1cc(OC)c2ssc3c(OC)cc(OC)c4ssc1c2-c43 | > 100 µM | > 100 µM | > 100 µM | > 100 µM |  | > 100 µM | > 100 µM | > 100 µM | > 100 µM | > 100 µM | > 100 µM | > 100 µM | > 100 µM | > 100 µM | > 100 µM | > 100 µM
6 | O=C(CSc1nnc(Cc2ccccc2)o1)Nc1cccc(Cl)c1 | > 100 µM | > 100 µM | > 100 µM | > 100 µM |  | > 100 µM | > 100 µM | > 100 µM | > 100 µM | > 100 µM | > 100 µM | > 100 µM | > 100 µM | > 100 µM | > 100 µM | 
